According to ChEMBL document CHEMBL1148604 (J Med Chem, 2006):
≈ marks a conversion by molar mass, not a printed value.

Key:
[1] = test system: Mycobacterium tuberculosis; test: Inhibitory activity against Mycobacterium tuberculosis H37Rv; format: functional
[2] = target: T1, Mycobacterial beta-ketoacyl-[acyl-carrier-protein] synthase III (Mycobacterium tuberculosis, UniProt P9WNG3); test: Inhibitory activity against FabH from Mycobacterium tuberculosis H37Rv
T1 sequence (P9WNG3 whole entry): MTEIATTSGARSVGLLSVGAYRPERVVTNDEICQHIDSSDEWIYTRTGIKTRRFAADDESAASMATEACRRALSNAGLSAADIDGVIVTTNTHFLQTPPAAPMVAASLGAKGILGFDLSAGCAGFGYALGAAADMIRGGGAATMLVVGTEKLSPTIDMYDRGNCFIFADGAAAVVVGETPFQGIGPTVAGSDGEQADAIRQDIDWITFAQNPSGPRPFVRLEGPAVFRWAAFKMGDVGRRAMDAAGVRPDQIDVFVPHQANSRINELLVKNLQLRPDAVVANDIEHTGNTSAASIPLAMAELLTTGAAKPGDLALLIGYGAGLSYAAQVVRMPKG

[3] = target: T2, 3-oxoacyl-[acyl-carrier-protein] synthase 2 (Mycobacterium tuberculosis, UniProt P9WQD7); test: Inhibitory activity against KasB from Mycobacterium tuberculosis H37Rv
T2 sequence (P9WQD7 whole entry): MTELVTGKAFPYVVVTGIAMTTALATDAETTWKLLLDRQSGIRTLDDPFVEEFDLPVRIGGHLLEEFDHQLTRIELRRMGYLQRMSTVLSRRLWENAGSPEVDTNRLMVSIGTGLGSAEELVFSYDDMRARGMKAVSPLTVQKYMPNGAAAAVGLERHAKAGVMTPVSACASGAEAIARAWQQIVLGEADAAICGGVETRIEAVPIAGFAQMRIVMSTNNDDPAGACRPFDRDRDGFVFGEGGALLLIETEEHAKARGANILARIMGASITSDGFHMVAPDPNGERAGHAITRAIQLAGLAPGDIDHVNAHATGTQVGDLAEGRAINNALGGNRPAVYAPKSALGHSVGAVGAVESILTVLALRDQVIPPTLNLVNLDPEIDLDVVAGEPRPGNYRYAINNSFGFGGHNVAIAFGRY

[4] = target: T3, 3-oxoacyl-[acyl-carrier-protein] synthase 1 (Escherichia coli K-12, UniProt P0A953); test: Inhibitory activity against FabB from Escherichia coli ANSI
T3 sequence (P0A953 whole entry): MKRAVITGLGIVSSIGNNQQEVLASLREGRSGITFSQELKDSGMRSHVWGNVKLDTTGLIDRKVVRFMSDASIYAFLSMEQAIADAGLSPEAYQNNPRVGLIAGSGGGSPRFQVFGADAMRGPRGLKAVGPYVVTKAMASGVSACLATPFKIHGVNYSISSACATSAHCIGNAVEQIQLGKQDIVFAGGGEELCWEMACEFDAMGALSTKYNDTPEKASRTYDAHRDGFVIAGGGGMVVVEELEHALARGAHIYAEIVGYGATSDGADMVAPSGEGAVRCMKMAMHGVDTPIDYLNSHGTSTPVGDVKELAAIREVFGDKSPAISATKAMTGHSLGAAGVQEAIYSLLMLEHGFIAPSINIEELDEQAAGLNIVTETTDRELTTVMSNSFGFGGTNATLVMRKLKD

[5] = target: T4, 3-oxoacyl-[acyl-carrier-protein] synthase 3 (Escherichia coli, UniProt C3TDZ2); test: Inhibitory activity against FabH from Escherichia coli ANSI
T4 sequence (C3TDZ2 whole entry): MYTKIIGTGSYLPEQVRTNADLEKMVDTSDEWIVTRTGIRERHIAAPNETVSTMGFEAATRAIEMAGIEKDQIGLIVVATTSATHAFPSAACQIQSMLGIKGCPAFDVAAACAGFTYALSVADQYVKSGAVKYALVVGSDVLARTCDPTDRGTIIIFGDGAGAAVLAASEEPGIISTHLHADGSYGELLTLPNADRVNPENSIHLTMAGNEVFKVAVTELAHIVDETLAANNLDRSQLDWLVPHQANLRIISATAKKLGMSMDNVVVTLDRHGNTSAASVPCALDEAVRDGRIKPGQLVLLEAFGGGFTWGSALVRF

Escherichia coli = test: Inhibitory activity against Escherichia coli ANSI; format: functional
wild-type apo-KasA = wild-type apo-KasA (Mycobacterium tuberculosis, UniProt P9WQD9); test: Inhibitory activity against KasA from Mycobacterium tuberculosis H37Rv
wild-type apo-KasA, sequence (P9WQD9 whole entry, looked up): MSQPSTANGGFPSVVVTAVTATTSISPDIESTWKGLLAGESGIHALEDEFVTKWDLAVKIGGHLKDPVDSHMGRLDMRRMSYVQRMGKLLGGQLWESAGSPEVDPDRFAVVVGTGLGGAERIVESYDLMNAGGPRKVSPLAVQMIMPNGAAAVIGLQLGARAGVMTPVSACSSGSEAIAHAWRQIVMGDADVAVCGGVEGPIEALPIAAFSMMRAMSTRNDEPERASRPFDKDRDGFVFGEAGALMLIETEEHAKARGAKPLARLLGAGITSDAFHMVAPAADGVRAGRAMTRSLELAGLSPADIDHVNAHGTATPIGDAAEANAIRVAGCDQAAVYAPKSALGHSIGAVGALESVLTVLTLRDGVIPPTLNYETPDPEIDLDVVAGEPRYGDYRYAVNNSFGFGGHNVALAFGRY

Structure (SMILES)	MIC [1]	IC50 [2]	IC50 [3]	IC50 [4]	IC50 [5]	MIC (Escherichia coli)	IC50 (wild-type apo-KasA)
CCCCCCCCCCCCCCCCC1(C)SC(O)=C(C)C1=O (stereo unspecified)	> 1000 µM	–	–	–	–	–	–
CCCCCCCCC(C)C1(C)SC(O)=C(C)C1=O (stereo unspecified)	1000 µM (≈ 284 µg/mL)	75 µM	> 1000 µM	> 1000 µM	> 1000 µM	35 µM (≈ 9.96 µg/mL)	> 1000 µM
CC1=C(O)C(C)(Cc2c(C)cc(C)cc2C)SC1=O (stereo unspecified)	1000 µM (≈ 276 µg/mL)	> 1000 µM	> 1000 µM	> 1000 µM	> 1000 µM	> 1000 µM	> 1000 µM
CCCCCCCCCCCCCCCC1(C)SC(O)=C(C)C1=O (stereo unspecified)	500 µM (≈ 177 µg/mL)	–	–	–	–	–	–
COc1cc(CC2(C)SC(O)=C(C)C2=O)cc(OC)c1 (stereo unspecified)	> 1000 µM	> 1000 µM	> 1000 µM	> 1000 µM	> 1000 µM	> 1000 µM	> 1000 µM
CC1=C(O)C(C)(Cc2ccc(Cl)cc2)SC1=O (stereo unspecified)	1000 µM (≈ 269 µg/mL)	> 100 µM	> 1000 µM	> 1000 µM	> 1000 µM	> 1000 µM	> 1000 µM
CC1=C(O)C(C)(Cc2ccccc2C)SC1=O (stereo unspecified)	1000 µM (≈ 248 µg/mL)	> 1000 µM	> 1000 µM	> 1000 µM	> 1000 µM	> 1000 µM	> 1000 µM
COc1ccccc1CC1(C)SC(O)=C(C)C1=O (stereo unspecified)	> 1000 µM	> 100 µM	> 1000 µM	> 1000 µM	> 1000 µM	> 1000 µM	> 1000 µM
CC1=C(O)C(C)(Cc2c(Cl)cccc2Cl)SC1=O (stereo unspecified)	500 µM (≈ 152 µg/mL)	> 1000 µM	> 1000 µM	> 1000 µM	> 1000 µM	> 1000 µM	> 1000 µM
CC1=C(O)C(C)(Cc2ccc(C)cc2)SC1=O (stereo unspecified)	> 1000 µM	> 1000 µM	> 1000 µM	> 1000 µM	> 1000 µM	> 1000 µM	> 1000 µM
CCCCCCCCCCC(C)C1(C)SC(O)=C(C)C1=O (stereo unspecified)	500 µM (≈ 156 µg/mL)	65 µM	> 1000 µM	> 1000 µM	100 µM	35 µM (≈ 10.9 µg/mL)	> 1000 µM
CC1=C(O)C(C)(Cc2cc(C)ccc2C)SC1=O (stereo unspecified)	> 1000 µM	> 1000 µM	> 1000 µM	> 1000 µM	> 1000 µM	> 1000 µM	> 1000 µM
CC1=C(O)C(C)(Cc2cccc(Cl)c2)SC1=O (stereo unspecified)	1000 µM (≈ 269 µg/mL)	> 1000 µM	> 1000 µM	> 1000 µM	> 1000 µM	> 1000 µM	> 100 µM
CC1=C(O)C(C)(Cc2ccc(C(C)(C)C)cc2)SC1=O (stereo unspecified)	1000 µM (≈ 290 µg/mL)	> 100 µM	> 1000 µM	> 1000 µM	> 1000 µM	> 1000 µM	> 1000 µM
CCCCCCCCCCCC1(C)SC(O)=C(C)C1=O (stereo unspecified)	500 µM (≈ 149 µg/mL)	100 µM	> 1000 µM	> 1000 µM	> 100 µM	25 µM (≈ 7.46 µg/mL)	> 1000 µM
CC1=C(O)C(C)(Cc2ccc(F)cc2)SC1=O (stereo unspecified)	> 1000 µM	> 100 µM	> 1000 µM	> 1000 µM	> 1000 µM	> 1000 µM	> 1000 µM
C=CCCC1(C)SC(=O)C(C)=C1O (stereo unspecified)	> 1000 µM	> 1000 µM	> 1000 µM	> 1000 µM	> 1000 µM	> 1000 µM	> 1000 µM
COc1cccc(CC2(C)SC(O)=C(C)C2=O)c1 (stereo unspecified)	> 1000 µM	> 1000 µM	> 1000 µM	> 1000 µM	> 1000 µM	> 1000 µM	> 1000 µM
CCCCC(CC)CC1(C)SC(O)=C(C)C1=O (stereo unspecified)	1000 µM (≈ 256 µg/mL)	> 1000 µM	> 1000 µM	> 1000 µM	> 1000 µM	> 1000 µM	> 1000 µM
